Among the data in PubChem BioAssay (NCI) are TGI and GI50 values, retold here.

Test in all cases: NCI-60 cell line screen, 48 h
The test system of experiment [1] is COLO 205 colon.
For experiment [2], the system named is M14 melanoma.
The subject of experiment [3] is IGROV1 ovarian.
For experiment [4], the system named is U251 CNS.
In experiment [5] the test system is MCF7 breast.
The test system of experiment [6] is SW-620 colon.
In experiment [7] the test system is SN12C renal.
The test system of experiment [8] is OVCAR-4 ovarian.
For experiment [9], the system named is A498 renal.
Experiment [10] deals with DMS 114 small cell lung.

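All cell lines were grown in 96-well plates and treated with compound for 48 hours. GI50 = concentration required for 50% inhibition of growth. TGI: total growth inhibition.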

On to `CC(=O)Oc1ccc2c(c1)oc1c3ccc(OC(C)=O)cc3n(C)c(=O)c21`, for which the TGI in experiment [1], in experiment [2], in experiment [3], in [4], in experiment [5] and in experiment [6] was above 100 µM throughout. Besides, the TGI in experiment [7] was determined as 66 µM.
For the compound `O=[N+]([O-])c1ccccc1NC1c2ccccc2Oc2ccccc21`, the GI50 in experiment [8] is 8.21 µM; in experiment [1], 3.59 µM; in experiment [2], 3.53 µM; in experiment [3], 16.9 µM; in experiment [4] it was 4.88 µM; in experiment [5], 4.13 µM. Also, the values for the GI50 in [6], in experiment [9] and in experiment [7] were 3.55 µM, 5.82 µM and 6.17 µM, respectively. The TGI in [8], in experiment [1], in experiment [2], in [3], in [4] and in experiment [5] was above 100 µM throughout. Also, the TGI in [6], in experiment [9] and in experiment [7] was above 100 µM in each case.
For `CCN(CC)CCCNc1ncc(C)c2[nH]c3ccncc3c12`, the TGI in experiment [8] stood at 13.8 µM; in [10], 24.1 µM; in experiment [1], 22.6 µM; in experiment [3], 27.3 µM; in experiment [4] it was 30.6 µM; in experiment [5], 17.4 µM. For the same compound, the TGI stood at 36.9 µM in experiment [6], 40.4 µM in experiment [9] and 30.5 µM in experiment [7].
Regarding `COC(=O)c1cccc(N[C@@H]2c3cc4c(cc3C(c3cc(OC)c(O)c(OC)c3)[C@H]3C(=O)OCC32)OCO4)c1` (some centres not stated), the TGI was above 100 µM in [8]; 4.3 µM in experiment [10]; 5.5 µM in experiment [1]; above 50.7 µM in [3]; 12.2 µM in experiment [4]; above 67.7 µM in experiment [5]. The TGI is above 100 µM in [6] and 3.46 µM in experiment [9].
In the case of `N=C(N)c1ccc(-c2ccc(-c3ccccc3)s2)cc1`, the GI50 in experiment [8] was 1.59 µM; in experiment [2], 1.68 µM; in [7], 1.72 µM. In addition, the TGI was determined as 3.21 µM in experiment [8], 3.51 µM in [2] and 3.41 µM in experiment [7].
On to `S=P1(N2CCCCC2)Oc2ccc3ccccc3c2-c2c(ccc3ccccc23)O1`, for which the TGI is 97.6 µM in [8]; above 100 µM in experiment [10]; above 100 µM in [1]; above 100 µM in experiment [3]; above 100 µM in [4]; above 100 µM in experiment [5]. Also, the TGI in [6], in experiment [9] and in [7] was above 100 µM throughout.
With `CCCCCCCC/C=C\CCCCCCCC(=O)O`, the TGI in experiment [8] was above 352 µM; in experiment [10], 194 µM; in experiment [1], above 500 µM; in experiment [3], above 281 µM; in experiment [4], 231 µM; in experiment [5] it was 215 µM. Further, the results for the TGI in experiment [6], in experiment [9] and in experiment [7] were 355 µM, above 500 µM and 199 µM, respectively.
Regarding `Cc1cc(C)c2c(c1)CC1(Cc3c(C)ccc(C)c3C1=O)C2=O` (configuration not stated), the TGI in [8], in [1], in experiment [2], in experiment [3], in experiment [4] and in [5] was above 100 µM each time. Moreover, the TGI in [6], in experiment [9] and in experiment [7] was above 100 µM throughout.
On to `O=C(O)CS`, for which the TGI in [8], in experiment [10], in experiment [1], in [3], in experiment [4] and in experiment [6] was above 100 µM each time. The compound also showed a TGI in experiment [7] above 100 µM.
Consider `COc1cc(/C=C/c2cc(/C=C/c3ccc(O)c(OC)c3)nc(N)n2)ccc1O`, for which the GI50 in [8] is 1.71 µM; in experiment [1], 1.8 µM; in experiment [3], 2.95 µM; in [4], 1.79 µM; in experiment [5], 1.81 µM; in experiment [9] it was 1.51 µM. In experiment [7], the GI50 is 2.74 µM. The TGI in [8] amounted to 11.5 µM; in [1], 3.24 µM; in experiment [3], 7.08 µM; in experiment [4], 5.69 µM; in experiment [5], 6.33 µM; in experiment [9] it was 3.26 µM. For the same compound, in experiment [7], the TGI was above 100 µM.
For the compound `CCNc1nnc(-c2nsc3ccccc23)s1`, the TGI in [8], in experiment [1], in experiment [2], in experiment [3], in experiment [4] and in experiment [6] was above 100 µM in each case. Further, the TGI in experiment [7] was above 100 µM.
Consider `O=C1C=CC2=[N+]([O-])C(c3ccccc3)(c3ccccc3)C(=Nc3ccccc3)C2=C1`, for which the TGI in experiment [8] was 3.28 µM; in experiment [10], 3.32 µM; in experiment [2], 3.76 µM; in experiment [3], 3.45 µM; in experiment [4], 7.32 µM; in [6] it was 3.65 µM. Moreover, the TGI in experiment [7] amounted to 3.96 µM.
Consider `C=C1C(=O)C[C@@]23CCC[C@@]12CC(OCOC)C3` (some centres not stated), for which the TGI in [8] turned out to be 5.66 µM; in [10], 5.13 µM; in experiment [1], 14.6 µM; in experiment [3] it was 6.02 µM; in [4] it was 21 µM; in experiment [5], 3.74 µM. In addition, the TGI in experiment [6] worked out at 3.97 µM; in experiment [9], 18.4 µM; in [7], 4.53 µM.
As for `CC(C)CCC[C@@H](C)C1CCC2[C@@H]3CC=C4C[C@@H](C(=O)NCC[N+](C)(C)CCCS(=O)(=O)[O-])CC[C@]4(C)C3CC[C@@]21C` (some centres not stated), the TGI was 35.9 µM in [8]; 35.7 µM in experiment [10]; 31.9 µM in experiment [1]; 31.6 µM in [2]; 32.6 µM in experiment [3]; 31.2 µM in experiment [4]. For the same compound, the TGI was found to be 30.7 µM in experiment [6] and 32.6 µM in experiment [7].
